SMILES strings stand for the structures.

In assay [1] the test system is mouse ESCs (ES R1 cells). Nature of the assay: Generating adherent spheroids from mouse ESCs by two 48 h rounds of SUMO E1 inhibitor followed by medium switch. It is filed as cell-based. The following applies: two rounds of 48 h treatment in serum+Lif, then switch to N2B27+Lif; ML-792 2.5 μM, TAK-981 0.1 μM. On the procedure: • Using ML-792 as hypoSUMOylation agent (SUMO E1 enzyme inhibitor): ESCs (ES R1 cells-129X1×129S1—ATCC) were dissociated with Trypsin-EDTA and plated (2.5 million cells in 100 mm dish) in serum+Lif medium supplemented with 2.5 μM ML-792 (Takeda Pharmaceuticals International Co.). Medium was replaced the next day to refresh treatment. After 48 h of treatment, plates were rinsed twice with PBS then cells were allowed to recover in serum+Lif. 5 days after the end of the first round, cells were similarly counted and plated for a 2nd round of ML-792. After 48 h of treatment, plates were rinsed twice with PBS then cells were allowed to recover in N2B27+Lif medium. […] By contrast the following specific parameters are taken into consideration with TAK-981:
On Day 1: first round. 500 000 ES R1 cells were plated per well well of a gelatin-coated 6-well plate in 2 ml of serum+Lif medium, supplemented with 0.1 μM of TAK-981. On Day 2, medium was replaced (aspirated) to refresh treatment (2 mL of Serum+Lif medium, supplemented with 0.1 μM of TAK-981 were added). After 48 h of treatment, on Day 3, the medium was aspirated and wells were rinsed twice with PBS then cells were allowed to recover in 2 ml of added serum+Lif. 6 days after the end of the first round, cells were similarly counted and plated for a 2nd round of TAK-981 (for example starting on Day 9 from the start of first round). […]

Assay [2] relates to global level of SUMOylation in mouse ESCs. The assay can be described thus: Immunoblots of SUMO1 and SUMO2/3 conjugates in treated ESCs. The following applies: D3 and D10, after first and second 48 h treatment; restored at D8 after withdrawal. It is filed as cell-based. On the procedure:
Cells were collected and directly lysed in Laemmli buffer (Bio-Rad #161-0747). Proteins were quantified using Pierce 660 nm Protein Assay (ThermoFisher Scientific #22662) according to manufacturer's instructions. Equal amounts of proteins were loaded on gels and good equilibration of the different samples was assessed by Ponceau staining after membrane transfer. Antibodies against SUMO1 (1:1000, Abcam #ab32058), Actin (1:4000, Sigma #A1978), SUMO2/3 (1:1000, Abcam #ab81371), Gapdh (1:1000, Cell Signaling #2118), Dnmt1 (1:1000, Abcam #ab13537), Dnmt3a (1:1000, Abcam #ab2850), Dnmt3b (1:1000, Abcam #ab2851), Tet2 (1:1000, Cell Signaling #36449S), Histone H3 (1:5000, Abcam #ab24834) were used according to standard protocols and suppliers' recommendations.

The test system of assay [3] is whole genome methylated CG fraction. Nature of the assay: Genome-wide DNA methylation profiling (Methyl-seq) during the hypoSUMOylation protocol. The following applies: D1 to D10 of the hypoSUMOylation protocol. The class given is cell-based, mouse. On the procedure:
DNA was extracted and purified from 2 million cells for each condition with the Quick-DNA Midiprep Plus Kit (Zymo Research D4075) following manufacturer's instructions. DNA was quantified with a NanoDrop ND-1000 (ThermoFisher Scientific). The NEBNext Enzymatic Methyl-seq Kit (New England Biolabs #E7120S) was used to prepare libraries for detection of 5-mC and 5-hmC. 200 ng of DNA from each sample were sheared to 275 bp fragments with an E220 Focused-ultrasonicator (Covaris) with the following settings: Duty Factor, 10%—Peak Incident Power, 175 W—Cycles per burst, 200—Duration, 100 sec. Fragment size was validated by a 4200 TapeStation System (Agilent Technologies). The NEBNext Enzymatic Methyl-seq Kit workflow was then followed, using the sodium hydroxide option for the denaturation step. The size distribution and concentration of the libraries was determined by TapeStation. The libraries were sequenced on an Illumina HiSeq4000 sequencer as paired-end 100 base reads following Illumina's instructions. […]
Methyl-seq data were processed with the Bismark pipeline^62 using bowtie2 aligner^64 with the default parameters. Biological triplicates were merged and CG sites with at least 5 reads were kept for downstream analyses. Methylated and unmethylated CG sites were counted within predetermined windows (bin or interval) and a binomial test was used to compare different timepoints or regions. […]

Assay [4] has as its system Dnmt3a. Nature of the assay: Dnmt3a gene expression upon ML-792 treatment (siSall4 experiment). The following applies: ML-792 treatment for 48 h; induction reduced by Sall4 knockdown. It is filed as cell-based, mouse. On the procedure: (§1) cDNA was generated with a High-Capacity cDNA Reverse Transcription Kit (Applied Biosystems #4368814) from 500 ng to […] of total RNA purified by Trizol extraction. Quantitative real-time PCR analysis was performed with SYBR Green PCR master mix (Applied Biosystems #4309155) and the primer sets indicated in Supplementary Table 7 using cDNA or genomic DNA (local ChIP). Quantitative real-time PCR analysis was performed on a CFX96 Touch Real-Time PCR Detection System (Bio-Rad) or a QuantStudio 6 Flex Real-Time PCR System (Applied Biosystems).

In assay [5] the test system is Nanog. Nature of the assay: Nanog expression at D8 after a round of hypoSUMOylation followed by 5-azacytidine treatment. It is filed as cell-based, mouse. The following applies: 0.1 μM for 5 days after the first wave of hypoSUMOylation.
The subject of assay [6] is mouse ESC-derived spheroids. Nature of the assay: Marker expression and cell types of spheroids prepared with SUMO E1 inhibitor. It is filed as cell-based. The following applies: spheroids prepared with TAK-981; same as with ML-792. Here is the method: On Day 1: first round. 500 000 ES R1 cells were plated per well well of a gelatin-coated 6-well plate in 2 ml of serum+Lif medium, supplemented with 0.1 μM of TAK-981. On Day 2, medium was replaced (aspirated) to refresh treatment (2 mL of Serum+Lif medium, supplemented with 0.1 μM of TAK-981 were added). After 48 h of treatment, on Day 3, the medium was aspirated and wells were rinsed twice with PBS then cells were allowed to recover in 2 ml of added serum+Lif. 6 days after the end of the first round, cells were similarly counted and plated for a 2nd round of TAK-981 (for example starting on Day 9 from the start of first round). On Day 9, 500 000 ES R1 cells were seeded per well on a gelatin-coated 6-well plate in 2 mL of Serum+Lif medium, supplemented with 0.1 μM of TAK-981 On day 10, the medium was aspirated and 2 ml of serum+Lif medium were added, supplemented with 0.1 μM of TAK-981 After 48 h of treatment (on Day 11), the medium was aspirated and wells were rinsed twice with PBS then cells were allowed to recover in 2 ml of N2B27+Lif medium that were added. Culture was carried out in N2B27+Lif medium.
as §1

For `NS(=O)(=O)OC[C@H]1C[C@@H](Nc2ncncc2C(=O)c2ccn(Cc3cccc(Br)c3)n2)C[C@@H]1O` [ML-792], in assay [1], the “formation of spheroid structures” value is listed as “yielded large spheroid structures on adherent plates”. The “level of SUMO conjugates (SUMO1, SUMO2/3 immunoblot)” value in assay [2] is “drop of SUMO conjugates at day 3 (D3) and D10”. The “whole genome methylated CG fraction” value in assay [3] is listed as “gradual increase of the methylated CG fraction from D1 to D10”. Also, in assay [4], the Dnmt3a expression result was “induction of Dnmt3a”.

For the molecule `Nc1ncn([C@@H]2O[C@H](CO)[C@@H](O)[C@H]2O)c(=O)n1` [5-azacytidine], in assay [5], the “Nanog expression at D8” value is recorded as “able to maintain a high level of Nanog”.

`Cc1sc(C(=O)c2cncnc2NC2C[C@H](COS(N)(=O)=O)[C@@H](C)C2)cc1[C@@H]1NCCc2ccc(Cl)cc21` (stereo partly shown) [TAK-981]: in assay [1], the “formation of spheroid structures” value is recorded as “cells form three-dimensional adherent spheroids”. Besides, in assay [6], the “emergence of EPI-L cell type” value is “Emergence of an EPI-L cell type expressing Pou3f1, Fgt5, Wnt3”; the “emergence of ESC-L cell type” value is “Emergence of an ESC-L cell type expressing Dppa3”; the “emergence of XEN-L cell type” value is given as “Emergence of a XEN-L cell type expressing Sox17, Gata4, Snail”; the “pluripotency marker expression in spheroids” value is “Decrease of pluripotency markers Nanog, Essrb”.

The values above are taken from patent US20240318134A1, “IN VITRO GENERATION OF ORGANIZED 3D CELL STRUCTURES INCLUDING HEAD-TRUNK EMBRYO-LIKE STRUCTURES, USING EPIGENETIC REMODELING FACTORS-MICROFLUIDIC PLATFORM SUITABLE FOR THEIR GENERATION” (INSTITUT PASTEUR, priority 2021, published 2024).
